According to patent publication US12097215B2, “Antibacterial composition and its use in treating bacterial infections” (Vector Vitale IP LLC, priority 2017, dated 2024):
Converted amounts (≈) assume the structure as drawn. Read-outs that look alike come from different tables or passages of the source. Marks after values point to notes of the source that are not given here.

Assays:
[1] = system: E. coli ATCC 25922; assay: MIC by serial dilutions in broth (visible growth); format: cell-based;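 also: broth tubes inoculated to about 5×10^5 CFU/ml, incubated at 35 °C for 16-24 h, growth judged by transmitted light versus an untreated inoculum reference tube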
Method: (§3) The minimum inhibitory concentration (MIC) and minimum bactericidal concentration (MBC) of the antibacterial composition enriched for the light isotope zinc ^64Zne was evaluated in the experiment. […] S. aureus ATCC 25923, E. coli ATCC 25922 and P. aeruginosa ATCC 27853 were used as test cultures.
(§4) The studies were carried out using the method of serial dilutions in broth. To determine sensitivity of microorganisms to the antibacterial composition, 0.5 ml of broth was placed into each tube. The number of tubes was determined based on the desired number of dilutions and was increased by one for the “negative” control (no test composition). Series of two-fold serial dilutions of the test variants of the antibacterial composition were used and concentrations ranging from 450 mcg ^64Zne/ml to 0.000107 mcg ^64Zne/ml were obtained.
(§5) Reference test strains of S. aureus ATCC 25923, E. coli ATCC 25922 and P. aeruginosa ATCC 27853 were incubated in Mueller-Hinton liquid broth at 37° C. for 24 hours. Standard bacterial suspension equivalent to 0.5 McFarland standard diluted 100-fold with the broth was used for the inoculation of the tubes after which the concentration of microorganism in it was approximately 10^6 CFU/ml.
(§6) 0.5 ml of inoculum was added to each tube containing 0.5 ml of the appropriate dilution of a solution of the ^64Zn-enriched salt of interest. […] The final concentration of the microorganism in each tube was approximately 5×10^5 CFU/ml.
(§7) The tubes were incubated at 35° C. in air for 16-20 or 20-24 hours (depending on the bacterial strain).
(§8) To determine the presence of microorganism growth the test tubes with inoculum were viewed under transmitted light. Transmitted light was measured by spectrophotometry. The growth of culture in the presence of antibacterial compositions based on ^64Zne was compared with the reference test tube (“negative” control), containing the original inoculum and stored in the refrigerator. The MIC was determined as the lowest concentration of ^64Zne that inhibits visible growth of the microorganism. Both gram-positive (S. aureus) and gram-negative bacteria (P. aeruginosa, E. coli) were used in the experiments described below.
(§9) That is, ^64Zne in the form of a salt was compared with a composition that contains zinc with a natural distribution of isotopes. […] Relevant samples containing salt of natural zinc with EDDA and natural zinc sulfate were used for the comparison.
(§10) The following commercial antibacterial medications were used for the study: azithromycin and ceftriaxone and norfloxacin. The initial concentration of 3000 mcg/ml was used for the samples of all the above compounds. […] Serial dilutions of the above antibacterial compounds were also prepared in the same way as for the antibacterial composition of the invention. The same pathogenic strains of S. aureus ATCC 25923, E. coli ATCC 25922, P. aeruginosa ATCC 27853 were used for the study.

[2] = system: S. aureus ATCC 25923; assay: MIC by serial dilutions in broth (visible growth); format: cell-based;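 also: broth tubes inoculated at about 5×10^5 CFU/ml, incubated 16-24 h at 35 °C in air, growth judged by transmitted light against an unexposed refrigerated inoculum tube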
Method: as §3, §4, §5, §6, §7, §8, §9, §10

[3] = system: P. aeruginosa ATCC 27853; assay: MIC by serial dilutions in broth (visible growth)
Method: as §3, §4, §5, §6, §7, §8, §9, §10

[4] = system: S. aureus ATCC 25923; assay: MBC by plating tube contents on Mueller-Hinton medium; format: cell-based
Method: (§1) To evaluate the bactericidal action of the antibacterial composition based on light isotope ^64Zne the minimum bactericidal concentration (MBC) was determined by plating out 0.1 ml of the contents of each tube containing the antibacterial composition on Mueller-Hinton medium. The incubation was at 37° C. for 24 h.
(§2) The MBC of the test samples was determined as the lowest concentration at which there was no growth on Mueller-Hinton agar medium.

[5] = system: E. coli ATCC 25922; assay: as above; format: cell-based
Method: as §1, §2

[6] = system: P. aeruginosa ATCC 27853; assay: as above; format: cell-based
Method: as §1, §2

[7] = concentration of ^64Zne, Tables 1-5
[8] = Table 7, ^64Zne vs natural zinc
[9] = Table 8, ^64Zne vs natural zinc

O=C([O-])CC(O)(CC(=O)[O-])C(=O)[O-].O=C([O-])CC(O)(CC(=O)[O-])C(=O)[O-].[Zn+2].[Zn+2].[Zn+2] [^64Zne citrate]
visible growth ([1]; ^64Zne 0.00011 mcg/ml): +
visible growth ([1]; ^64Zne 0.00022 mcg/ml): +
visible growth ([1]; ^64Zne 0.00043 mcg/ml): +
visible growth ([1]; ^64Zne 0.00086 mcg/ml): +
visible growth ([1]; ^64Zne 0.0017 mcg/ml): +
visible growth ([1]; ^64Zne 0.0034 mcg/ml): +
visible growth ([1]; ^64Zne 0.0069 mcg/ml): +
visible growth ([1]; ^64Zne 0.014 mcg/ml): +
visible growth ([1]; ^64Zne 0.027 mcg/ml): −
visible growth ([1]; ^64Zne 0.055 mcg/ml): −
visible growth ([1]; ^64Zne 0.11 mcg/ml): −
visible growth ([1]; ^64Zne 0.22 mcg/ml): −
visible growth ([1]; ^64Zne 0.44 mcg/ml): −
visible growth ([1]; ^64Zne 0.88 mcg/ml): −
visible growth ([1]; ^64Zne 1.76 mcg/ml): −
visible growth ([1]; ^64Zne 3.52 mcg/ml): −
visible growth ([1]; ^64Zne 7.03 mcg/ml): −
visible growth ([1]; ^64Zne 14.06 mcg/ml): −
visible growth ([1]; ^64Zne 28.13 mcg/ml): −
visible growth ([1]; ^64Zne 56.25 mcg/ml): −
visible growth ([1]; ^64Zne 112.5 mcg/ml): −
visible growth ([1]; ^64Zne 225 mcg/ml): −
visible growth ([1]; ^64Zne 450 mcg/ml): −
MIC [1, 7]: 0.0275 µg/mL
visible growth ([2]; ^64Zne 0.00011 mcg/ml): +
visible growth ([2]; ^64Zne 0.00022 mcg/ml): +
visible growth ([2]; ^64Zne 0.00043 mcg/ml): +
visible growth ([2]; ^64Zne 0.00086 mcg/ml): +
visible growth ([2]; ^64Zne 0.0017 mcg/ml): +
visible growth ([2]; ^64Zne 0.0034 mcg/ml): +
visible growth ([2]; ^64Zne 0.0069 mcg/ml): +
visible growth ([2]; ^64Zne 0.014 mcg/ml): +
visible growth ([2]; ^64Zne 0.027 mcg/ml): −
visible growth ([2]; ^64Zne 0.055 mcg/ml): −
visible growth ([2]; ^64Zne 0.11 mcg/ml): −
visible growth ([2]; ^64Zne 0.22 mcg/ml): −
visible growth ([2]; ^64Zne 0.44 mcg/ml): −
visible growth ([2]; ^64Zne 0.88 mcg/ml): −
visible growth ([2]; ^64Zne 1.76 mcg/ml): −
visible growth ([2]; ^64Zne 3.52 mcg/ml): −
visible growth ([2]; ^64Zne 7.03 mcg/ml): −
visible growth ([2]; ^64Zne 14.06 mcg/ml): −
visible growth ([2]; ^64Zne 28.13 mcg/ml): −
visible growth ([2]; ^64Zne 56.25 mcg/ml): −
visible growth ([2]; ^64Zne 112.5 mcg/ml): −
visible growth ([2]; ^64Zne 225 mcg/ml): −
MIC [2, 7]: 0.0275 µg/mL
MIC [3, 7]: 14.062 µg/mL
MBC ([4]; Table 6): 0.028* mcg ^64Zne/ml
MBC ([5]; Table 6): 0.44* mcg ^64Zne/ml
bactericidal activity (in words) [6]: satisfactory bactericidal activity
MBC ([6]; Table 6): 112.5 mcg ^64Zne/ml

NC(CCC(=O)[O-])C(=O)[O-].[64Zn+2] (centres unmarked) [^64Zne glutamate]
visible growth ([1]; ^64Zne 0.00018 mcg/ml): +
visible growth ([1]; ^64Zne 0.00036 mcg/ml): +
visible growth ([1]; ^64Zne 0.00072 mcg/ml): +
visible growth ([1]; ^64Zne 0.0014 mcg/ml): +
visible growth ([1]; ^64Zne 0.0029 mcg/ml): +
visible growth ([1]; ^64Zne 0.0057 mcg/ml): −
visible growth ([1]; ^64Zne 0.011 mcg/ml): −
visible growth ([1]; ^64Zne 0.023 mcg/ml): −
visible growth ([1]; ^64Zne 0.046 mcg/ml): −
visible growth ([1]; ^64Zne 0.092 mcg/ml): −
visible growth ([1]; ^64Zne 0.18 mcg/ml): −
visible growth ([1]; ^64Zne 0.37 mcg/ml): −
visible growth ([1]; ^64Zne 0.73 mcg/ml): −
visible growth ([1]; ^64Zne 1.46 mcg/ml): −
visible growth ([1]; ^64Zne 2.93 mcg/ml): −
visible growth ([1]; ^64Zne 5.86 mcg/ml): −
visible growth ([1]; ^64Zne 11.72 mcg/ml): −
visible growth ([1]; ^64Zne 23.44 mcg/ml): −
visible growth ([1]; ^64Zne 46.88 mcg/ml): −
visible growth ([1]; ^64Zne 93.75 mcg/ml): −
visible growth ([1]; ^64Zne 187.5 mcg/ml): −
visible growth ([1]; ^64Zne 375 mcg/ml): −
visible growth ([1]; ^64Zne 750 mcg/ml): −
MIC [1, 7]: 0.0057 µg/mL
visible growth ([2]; ^64Zne 0.00018 mcg/ml): +
visible growth ([2]; ^64Zne 0.00036 mcg/ml): +
visible growth ([2]; ^64Zne 0.00072 mcg/ml): +
visible growth ([2]; ^64Zne 0.0014 mcg/ml): +
visible growth ([2]; ^64Zne 0.0029 mcg/ml): +
visible growth ([2]; ^64Zne 0.0057 mcg/ml): +
visible growth ([2]; ^64Zne 0.011 mcg/ml): +
visible growth ([2]; ^64Zne 0.023 mcg/ml): +
visible growth ([2]; ^64Zne 0.046 mcg/ml): −
visible growth ([2]; ^64Zne 0.092 mcg/ml): −
visible growth ([2]; ^64Zne 0.18 mcg/ml): −
visible growth ([2]; ^64Zne 0.37 mcg/ml): −
visible growth ([2]; ^64Zne 0.73 mcg/ml): −
visible growth ([2]; ^64Zne 1.46 mcg/ml): −
visible growth ([2]; ^64Zne 2.93 mcg/ml): −
visible growth ([2]; ^64Zne 5.86 mcg/ml): −
visible growth ([2]; ^64Zne 11.72 mcg/ml): −
visible growth ([2]; ^64Zne 23.44 mcg/ml): −
visible growth ([2]; ^64Zne 46.88 mcg/ml): −
visible growth ([2]; ^64Zne 93.75 mcg/ml): −
visible growth ([2]; ^64Zne 187.5 mcg/ml): −
visible growth ([2]; ^64Zne 375 mcg/ml): −
MIC [2, 7]: 0.0458 µg/mL
bacteriostatic activity (in words) [3]: best results
MIC [3, 7]: 0.183 µg/mL
MBC ([4]; Table 6): 0.046* mcg ^64Zne/ml
MBC ([5]; Table 6): 0.37* mcg ^64Zne/ml
MBC ([6]; Table 6): >750 mcg ^64Zne/ml

O=S(=O)([O-])[O-].[64Zn+2] [^64Zne sulfate]
visible growth [1]: − and +
MIC [1, 8]: 0.0916 zinc/ml
visible growth ([1]; ^64Zne 0.00036 mcg/ml): +
visible growth ([1]; ^64Zne 0.00072 mcg/ml): +
visible growth ([1]; ^64Zne 0.0014 mcg/ml): +
visible growth ([1]; ^64Zne 0.0029 mcg/ml): +
visible growth ([1]; ^64Zne 0.011 mcg/ml): +
visible growth ([1]; ^64Zne 0.023 mcg/ml): +
visible growth ([1]; ^64Zne 0.046 mcg/ml): +
visible growth ([1]; ^64Zne 0.092 mcg/ml): −
visible growth ([1]; ^64Zne 0.37 mcg/ml): −
visible growth ([1]; ^64Zne 0.73 mcg/ml): −
visible growth ([1]; ^64Zne 1.46 mcg/ml): −
visible growth ([1]; ^64Zne 2.93 mcg/ml): −
visible growth ([1]; ^64Zne 5.86 mcg/ml): −
visible growth ([1]; ^64Zne 11.72 mcg/ml): −
visible growth ([1]; ^64Zne 23.44 mcg/ml): −
visible growth ([1]; ^64Zne 46.88 mcg/ml): −
visible growth ([1]; ^64Zne 93.75 mcg/ml): −
visible growth ([1]; ^64Zne 187.5 mcg/ml): −
visible growth ([1]; ^64Zne 375 mcg/ml): −
visible growth ([1]; ^64Zne 750 mcg/ml): −
visible growth ([1]; ^64Zne 1500 mcg/ml): −
MIC [1, 7]: 0.0916 µg/mL
visible growth [2]: − and +
MIC [2, 8]: 0.366 zinc/ml
visible growth ([2]; ^64Zne 0.00036 mcg/ml): +
visible growth ([2]; ^64Zne 0.00072 mcg/ml): +
visible growth ([2]; ^64Zne 0.0014 mcg/ml): +
visible growth ([2]; ^64Zne 0.0029 mcg/ml): +
visible growth ([2]; ^64Zne 0.011 mcg/ml): +
visible growth ([2]; ^64Zne 0.023 mcg/ml): +
visible growth ([2]; ^64Zne 0.046 mcg/ml): +
visible growth ([2]; ^64Zne 0.37 mcg/ml): −
visible growth ([2]; ^64Zne 1.46 mcg/ml): −
visible growth ([2]; ^64Zne 2.93 mcg/ml): −
visible growth ([2]; ^64Zne 5.86 mcg/ml): −
visible growth ([2]; ^64Zne 11.72 mcg/ml): −
visible growth ([2]; ^64Zne 23.44 mcg/ml): −
visible growth ([2]; ^64Zne 46.88 mcg/ml): −
visible growth ([2]; ^64Zne 93.75 mcg/ml): −
visible growth ([2]; ^64Zne 187.5 mcg/ml): −
visible growth ([2]; ^64Zne 375 mcg/ml): −
visible growth ([2]; ^64Zne 750 mcg/ml): −
MIC [2, 7]: 0.366 µg/mL
MIC [3, 8]: 46.875 zinc/ml
MIC [3, 7]: 46.875 µg/mL
MBC ([4]; Table 6): 0.37* mcg ^64Zne/ml
MBC [4, 9]: 0.3662 mcg zinc/ml
MBC ([5]; Table 6): 1.46* mcg ^64Zne/ml
MBC [5, 9]: 1.4648 mcg zinc/ml
bactericidal activity (in words) [6]: satisfactory bactericidal activity
MBC ([6]; Table 6): 375 mcg ^64Zne/ml
MBC [6, 9]: 375 mcg zinc/ml

CC[C@H]1OC(=O)[C@H](C)[C@@H](O[C@H]2C[C@@](C)(OC)[C@@H](O)[C@H](C)O2)[C@H](C)[C@@H](O[C@@H]2O[C@H](C)C[C@H](N(C)C)[C@H]2O)[C@](C)(O)C[C@@H](C)CN(C)[C@H](C)[C@@H](O)[C@]1(C)O [azithromycin, reference compound]
MIC ([1]; Escherichia coli, ATCC25922, Table 9, commercial antibacterial agents, read-out: MIC): 1500 µg/mL (≈ 2000 µM)
MIC ([2]; Staphylococcus aureus, ATCC25923, Table 9, commercial antibacterial agents, read-out: MIC): 188 µg/mL (≈ 250 µM)
MIC ([3]; Pseudomonas aeruginosa, ATCC27853): 1500 µg/mL (≈ 2000 µM)
MBC ([4]; Staphylococcus aureus, ATCC25923, Table 10, commercial antibacterial agents, read-out: MBC): < 1500 µg/mL
MBC ([5]; Escherichia coli, ATCC25922, Table 10, commercial antibacterial agents, read-out: MBC): < 1500 µg/mL
MBC ([6]; Pseudomonas aeruginosa, ATCC27853, Table 10, commercial antibacterial agents, read-out: MBC): < 1500 µg/mL
